Assay results: PubChem BioAssay AID1259408 (Genetic Toxicology Data Bank (GENE-TOX), 2018)
Activity calls are given as the source filed them. The rule behind the calls is not given here.

Test system: GENE-TOX genotoxicity assays, various organisms and cells
Test: GENE-TOX mutagenicity studies
Conditions: for call: Assay Type: In vivo carcinogenicity studies
[1] = Species/Cell Type: Salmonella typhimurium (one or more of the five standard strains: TA98, TA100, TA1535, TA1537, and TA1538), Assay Type: Histidine reverse gene mutation, Ames assay, Assay Code: SAL+, Evaluation Type: Evaluation A (Pre-1980)
[2] = Species/Cell Type: Drosophila melanogaster, Assay Type: Sex-linked recessive lethal gene mutation, Assay Code: SRL+, Evaluation Type: Evaluation A (Pre-1980)
[3] = Species/Cell Type: Nonhuman, Assay Code: CCG+, Evaluation Type: Evaluation A (Pre-1980)
[4] = Species/Cell Type: Nonhuman, Assay Type: Sister-chromatid exchange (SCE) in vivo, Assay Code: SC3+, Evaluation Type: Evaluation B (Post-1980)
[5] = Species/Cell Type: Salmonella typhimurium (one or more of the five standard strains: TA98, TA100, TA1535, TA1537, and TA1538), Assay Type: Histidine reverse gene mutation, Ames assay, Assay Code: SAL+*, Activation: With metabolic activation, Evaluation Type: Evaluation A (Pre-1980)
[6] = Species/Cell Type: Drosophila melanogaster, Assay Type: Sex-linked recessive lethal gene mutation, Assay Code: SRLT, Evaluation Type: Evaluation A (Pre-1980)
[7] = Species/Cell Type: Nonhuman, Assay Type: Sister-chromatid exchange (SCE) in vitro, Assay Code: SC2T, Evaluation Type: Evaluation B (Post-1980)
[8] = Species/Cell Type: Human, Assay Type: Sister-chromatid exchange (SCE) in vitro, Assay Code: SC1T, Evaluation Type: Evaluation B (Post-1980)
[9] = Species/Cell Type: Saccharomyces cerevisiae, Assay Type: Mitotic recombination or gene conversion, Assay Code: YEC+, Evaluation Type: Evaluation A (Pre-1980)
[10] = Species/Cell Type: Salmonella typhimurium (one or more of the five standard strains: TA98, TA100, TA1535, TA1537, and TA1538), Assay Type: Histidine reverse gene mutation, Ames assay, Assay Code: SALT, Evaluation Type: Evaluation A (Pre-1980)
[11] = Species/Cell Type: Saccharomyces cerevisiae, Assay Type: Mitotic recombination or gene conversion, Assay Code: YEC-, Evaluation Type: Evaluation A (Pre-1980)
[12] = Species/Cell Type: Bacillus subtilis (H17 vs M45), Assay Type: Rec-assay, spot test, DNA effects (bacterial DNA repair), Assay Code: REW+, Evaluation Type: Evaluation A (Pre-1980)
[13] = Species/Cell Type: Chinese hamster lung (V79) cells, Assay Type: Forward gene mutation at the HPRT or ouabain locus, Assay Code: V79+, Evaluation Type: Evaluation A (Pre-1980)
[14] = Species/Cell Type: Nonhuman, Assay Code: CCG+L, Evaluation Type: Evaluation A (Pre-1980)

## CCCCN(CCCO)N=O
[1]
  mutagenic call: active; positive

## NC(=O)N(CCO)N=O
[1]
  mutagenic call: active; positive

## COc1ccc(N)cc1N
[2]
  mutagenic call: active; positive
Species/Cell Type: Mammalian polychromatic erythrocytes, Assay Type: Micronucleus test, chromosome aberrations, Assay Code: MNTT, Evaluation Type: Evaluation A (Pre-1980)
  mutagenic call: no conclusion
Species/Cell Type: Mouse, Sex: Male, Assay Type: Sperm morphology, Assay Code: SPI-, Evaluation Type: Evaluation A (Pre-1980)
  mutagenic call: inactive; negative
Species/Cell Type: Neurospora crassa, Assay Type: Aneuploidy, chromosome aberrations, Assay Code: NEN+, Evaluation Type: Evaluation A (Pre-1980)
  mutagenic call: active; positive
[3]
  call: active; positive
[4]
  mutagenic call: active; positive
Species/Cell Type: Rodents, Sex: Male, Assay Type: Dominant lethal test, Assay Code: DLT-, Evaluation Type: Evaluation A (Pre-1980)
  mutagenic call: inactive; negative
[5]
  mutagenic call: active; positive

## Cc1c[nH]c(=O)[nH]c1=O
[6]
  mutagenic call: no conclusion
[7]
  mutagenic call: no conclusion

## O=C1CCc2c1ccc1c2ccc2ccccc21
Species/Cell Type: Human lymphocytes, Assay Type: Sister-chromatid exchange (SCE) in vitro, Assay Code: SCLT, Evaluation Type: Evaluation B (Post-1980)
  mutagenic call: no conclusion
[8]
  mutagenic call: no conclusion
[5]
  mutagenic call: active; positive

## ClCCl
Species/Cell Type: Drosophila melanogaster, Assay Type: Sex-linked recessive lethal gene mutation, Assay Code: SRL-, Evaluation Type: Evaluation A (Pre-1980)
  mutagenic call: inactive; negative
Species/Cell Type: Fischer rat embryo (RLV/1706) cells, Assay Type: Cell transformation, viral enhanced, Assay Code: CTR+, Evaluation Type: Evaluation A (Pre-1980)
  mutagenic call: active; positive
Species/Cell Type: Mammalian polychromatic erythrocytes, Assay Type: Micronucleus test, chromosome aberrations, Assay Code: MNT-, Evaluation Type: Evaluation B (Post-1980)
  mutagenic call: inactive; negative
Species/Cell Type: Nonhuman, Assay Type: Sister-chromatid exchange (SCE) in vitro, Assay Code: SC2+D, Dose Response: With dose response, Evaluation Type: Evaluation B (Post-1980)
  mutagenic call: active; positive
[9]
  mutagenic call: active; positive
Species/Cell Type: Saccharomyces cerevisiae, Assay Type: Mitotic recombination or gene conversion, Assay Code: YEH+, Evaluation Type: Evaluation A (Pre-1980)
  mutagenic call: active; positive
Species/Cell Type: Saccharomyces cerevisiae, Assay Type: Reverse gene mutation, Assay Code: YER+, Evaluation Type: Evaluation A (Pre-1980)
  mutagenic call: active; positive
[1]
  mutagenic call: active; positive

## CC#CC#CC#Cc1ccccc1
[7]
  mutagenic call: no conclusion

## Nc1nc(-c2csc(N)n2)cs1
[10]
  mutagenic call: no conclusion

## Nc1cccc2cc3ccccc3cc12
Species/Cell Type: Escherichia coli polA (W3119 vs P3478), Assay Type: Rec-assay, DNA effects (bacterial DNA repair), Assay Code: RE1T, Evaluation Type: Evaluation A (Pre-1980)
  mutagenic call: no conclusion
Species/Cell Type: Fischer rat embryo (RLV/1706) cells, Assay Type: Cell transformation, viral enhanced, Assay Code: CTR-, Evaluation Type: Evaluation A (Pre-1980)
  mutagenic call: inactive; negative
Species/Cell Type: Saccharomyces cerevisiae, Assay Type: Mitotic recombination or gene conversion, Assay Code: YEH+/-*, Activation: With metabolic activation, Evaluation Type: Evaluation A (Pre-1980)
  mutagenic call: inactive; positive without activation, negative with activation
[5]
  mutagenic call: active; positive
Species/Cell Type: Salmonella typhimurium, Assay Type: Forward and reverse gene mutation, host-mediated assay, Assay Code: HMA-, Evaluation Type: Evaluation A (Pre-1980)
  mutagenic call: inactive; negative
Species/Cell Type: Syrian hamster embryo (SHE) cells, Assay Type: Cell transformation, clonal assay, Assay Code: CTC-, Evaluation Type: Evaluation A (Pre-1980)
  mutagenic call: inactive; negative

## O=c1cnn([C@@H]2O[C@H](CO)[C@@H](O)[C@H]2O)c(=O)[nH]1
[6]
  mutagenic call: no conclusion
Species/Cell Type: Rabbit, Sex: Male, Assay Type: Sperm morphology, Assay Code: SPR+, Evaluation Type: Evaluation A (Pre-1980)
  mutagenic call: active; positive

## [Cl][Th]([Cl])([Cl])[Cl]
Species/Cell Type: Bacillus subtilis (H17 vs M45), Assay Type: Rec-assay, spot test, DNA effects (bacterial DNA repair), Assay Code: REW-, Evaluation Type: Evaluation A (Pre-1980)
  mutagenic call: inactive; negative

## COC(=O)Nc1cccc(OC(=O)Nc2cccc(C)c2)c1
Species/Cell Type: Aspergillus nidulans, Assay Type: Aneuploidy, chromosome aberrations, Assay Code: ASN+, Evaluation Type: Evaluation A (Pre-1980)
  mutagenic call: active; positive
[11]
  mutagenic call: inactive; negative

## NNc1nnc(NN)c2ccccc12
[4]
  mutagenic call: active; positive

## OC/C=C/c1ccc2c(c1)OCO2
[10]
  mutagenic call: no conclusion

## O=[N+]([O-])[O-].O=[N+]([O-])[O-].[Cd+2]
[12]
  mutagenic call: active; positive

## O=[N+]([O-])c1ccc(N=Nc2c(O)ccc3ccccc23)c(Cl)c1
[5]
  mutagenic call: active; positive

## CCSCCSP(=S)(OC)OC
Species/Cell Type: Mammalian polychromatic erythrocytes, Assay Type: Micronucleus test, chromosome aberrations, Assay Code: MNT+U, Dose Response: Unconfirmed positive response, Evaluation Type: Evaluation B (Post-1980)
  mutagenic call: active; positive

## O=C=Nc1ccc(Nc2ccc([N+](=O)[O-])cc2)cc1
[10]
  mutagenic call: no conclusion

## Cc1ccc2cc3c(ccc4ccccc43)c3c2c1C(=O)C3
[13]
  mutagenic call: active; positive
[14]
  call: active; positive
[5]
  mutagenic call: active; positive

## NC(N)=NS(=O)(=O)c1ccc(N)cc1
Species/Cell Type: Salmonella typhimurium (one or more of the five standard strains: TA98, TA100, TA1535, TA1537, and TA1538), Assay Type: Histidine reverse gene mutation, Ames assay, Assay Code: SAL-, Evaluation Type: Evaluation A (Pre-1980)
  mutagenic call: inactive; negative

## O=C(CCCN1CCC(O)(c2ccc(Cl)cc2)CC1)c1ccc(F)cc1
Species/Cell Type: Allium cepa, Assay Type: Chromosome aberrations, Assay Code: ALC+D, Dose Response: With dose response, Evaluation Type: Evaluation A (Pre-1980)
  mutagenic call: active; positive
[8]
  mutagenic call: no conclusion

## C/C=C/C=C/C#C/C=C/C=C/CCCCCOC(C)=O
[7]
  mutagenic call: no conclusion

## COC(=O)COc1ccc(Cl)cc1CSC(=N)N
Species/Cell Type: Saccharomyces cerevisiae, Assay Type: Reverse gene mutation, Assay Code: YERT, Evaluation Type: Evaluation A (Pre-1980)
  mutagenic call: no conclusion

## CON(C)C(=O)Nc1ccc(Cl)c(Cl)c1
Species/Cell Type: Hordeum vulgare (barley), Assay Type: Chromosome aberrations, Assay Code: HOC+, Evaluation Type: Evaluation A (Pre-1980)
  mutagenic call: active; positive
[10]
  mutagenic call: no conclusion
Species/Cell Type: Vicia faba, Assay Type: Chromosome aberrations, Assay Code: VIC+, Evaluation Type: Evaluation A (Pre-1980)
  mutagenic call: active; positive

## O=[N+]([O-])[O-].O=[N+]([O-])[O-].O=[N+]([O-])[O-].[Rh+3]
[12]
  mutagenic call: active; positive

## C=CCN(N=O)C(N)=O
Species/Cell Type: Arabidopsis species, Assay Type: Gene mutation, Assay Code: ARM+D, Dose Response: With dose response, Evaluation Type: Evaluation A (Pre-1980)
  mutagenic call: active; positive
[9]
  mutagenic call: active; positive

## O=C1c2c(O)ccc(Cl)c2C(=O)c2c(O)ccc(Cl)c21
[1]
  mutagenic call: active; positive

## CS(=O)(=O)OCC#CCOS(C)(=O)=O
[2]
  mutagenic call: active; positive

## Nc1cnn(-c2ccccc2)c(=O)c1Cl
[11]
  mutagenic call: inactive; negative

## O=C1C=Cc2ccc3c4c(ccc1c24)-c1ccccc1C3=O
Species/Cell Type: Chinese hamster lung (V79) cells, Assay Type: Forward gene mutation at the HPRT or ouabain locus, Assay Code: V79-, Evaluation Type: Evaluation A (Pre-1980)
  mutagenic call: inactive; negative
Species/Cell Type: Nonhuman, Assay Code: CCGT, Evaluation Type: Evaluation A (Pre-1980)
  call: no conclusion
[10]
  mutagenic call: no conclusion

## CCCCN(CCCC(=O)O)N=O
Species/Cell Type: Salmonella typhimurium (one or more of the five standard strains: TA98, TA100, TA1535, TA1537, and TA1538), Assay Type: Histidine reverse gene mutation, Ames assay, Assay Code: SAL+/-*, Activation: With metabolic activation, Evaluation Type: Evaluation A (Pre-1980)
  mutagenic call: inactive; positive without activation, negative with activation

## Cc1ccc(N=O)cc1
[9]
  mutagenic call: active; positive

## Nc1cccc2c(N)cccc12
[3]
  call: active; positive

## Cc1c2ccccc2c(C)c2c3c(ccc12)[C@H](O)[C@@H](O)C=C3
[13]
  mutagenic call: active; positive
Species/Cell Type: Mouse prostate cells, Assay Type: Cell transformation, Assay Code: CTM+, Evaluation Type: Evaluation A (Pre-1980)
  mutagenic call: active; positive
[14]
  call: active; positive

## O=Nn1c2ccccc2c2ccccc21
Species/Cell Type: Rat primary hepatocytes, Assay Type: Unscheduled DNA synthesis (UDS) in vitro, DNA effects, Assay Code: UDP-, Evaluation Type: Evaluation A (Pre-1980)
  mutagenic call: inactive; negative
